Experimental data taken from ChEMBL document CHEMBL1201862, “PubChem BioAssay data set” (2004).
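Cells were grown in 96-well plates and exposed to each compound for 48 hours at five concentrations; endpoints were interpolated linearly between bracketing concentrations, or set to the highest concentration if not reached. GI50 marks 50% less growth.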 Activity calls are given as the source filed them. Cut-off read from the data, not from the text of the source: active = GI50 up to about 1.1 µM and inactive = higher.

Key:
Assay in all cases: NCI anticancer screen, dose series, 48 h
TK-10 = test system: TK-10
IGROV-1 = test system: IGROV-1
NCI-H226 = test system: NCI-H226
CCRF-CEM = test system: CCRF-CEM
HCT-116 = test system: HCT-116
OVCAR-8 = test system: OVCAR-8
M14 = test system: M14
NCI-H23 = test system: NCI-H23
NCI-H460 = test system: NCI-H460
SW-620 = test system: SW-620
LXFL 529 = test system: LXFL 529
NCI-H522 = test system: NCI-H522
HL-60 = test system: HL-60
SK-MEL-28 = test system: SK-MEL-28
HT-29 = test system: HT-29
HCC 2998 = test system: HCC 2998
SK-MEL-5 = test system: SK-MEL-5
OVCAR-5 = test system: OVCAR-5

Measured: GI50

CC(C)(C)c1cc2ccc(C(N)=O)cc2c(=O)[nH]1
inactive: TK-10 > 100 µM | IGROV-1 > 100 µM | NCI-H226 56 µM | CCRF-CEM > 100 µM | HCT-116 69.7 µM | OVCAR-8 > 100 µM | M14 > 100 µM | NCI-H23 > 100 µM | NCI-H460 > 100 µM | SW-620 > 100 µM | LXFL 529 > 100 µM | NCI-H522 > 100 µM | HL-60 79.8 µM | SK-MEL-28 > 100 µM | HT-29 > 100 µM | HCC 2998 > 100 µM | SK-MEL-5 > 100 µM | OVCAR-5 > 100 µM

CC1=NN(c2ccccc2)C(=O)C1=C1SCCCS1
inactive: TK-10 23.8 µM | IGROV-1 30.2 µM | NCI-H226 29.3 µM | CCRF-CEM 11.7 µM | HCT-116 13.8 µM | OVCAR-8 31.7 µM | M14 49.4 µM | NCI-H23 29.2 µM | NCI-H460 35.2 µM | SW-620 13.2 µM | LXFL 529 34.6 µM | NCI-H522 18.1 µM | HL-60 19.5 µM | SK-MEL-28 48.6 µM | HT-29 32 µM | HCC 2998 37 µM | SK-MEL-5 31.2 µM | OVCAR-5 54 µM

O=c1[nH]c2ccc([N+](=O)[O-])cc2nc1/C(=N/Nc1ccccc1)C(O)c1ccco1 (stereo unspecified)
inactive: TK-10 > 100 µM | IGROV-1 87.9 µM | NCI-H226 > 100 µM | CCRF-CEM 16.6 µM | HCT-116 73.1 µM | OVCAR-8 > 100 µM | M14 > 100 µM | NCI-H23 65.3 µM | NCI-H460 > 100 µM | SW-620 39.4 µM | LXFL 529 59.8 µM | NCI-H522 6.44 µM | HL-60 25.2 µM | SK-MEL-28 > 100 µM | HT-29 66.8 µM | HCC 2998 38.5 µM | SK-MEL-5 25.8 µM | OVCAR-5 > 100 µM

COC(=O)/C(Cl)=C1/CC1COCc1ccccc1 (stereo unspecified)
inactive: TK-10 30.8 µM | IGROV-1 44.9 µM | NCI-H226 32.3 µM | CCRF-CEM 14 µM | OVCAR-8 30.5 µM | M14 17 µM | NCI-H23 31.5 µM | NCI-H460 43.4 µM | SW-620 21.1 µM | LXFL 529 17.1 µM | NCI-H522 20.3 µM | HL-60 13.6 µM | SK-MEL-28 21.8 µM | HT-29 25 µM | HCC 2998 > 10 µM | SK-MEL-5 24.1 µM | OVCAR-5 74.3 µM
